# Columns and labels:
# KCNQ2 channels = KCNQ2 channels (Homo sapiens, UniProt O43526); assay: KCNQ2 automated patch clamp assay; type: cell-based; details: for inhibition at 30 µM: read-out: KCNQ2 % at 30 μM (IC50 column, saturating response not obtained); for fold loss of potency: KCNQ2 inhibitor, compared to the unsubstituted phenyl group (5)
# [1] = Snapshot in vivo PK, IP plasma and brain levels; details: brain, 10 mg/kg
# calcium channel, L-type = assay: Ricerca Lead Profiling Screen radioligand binding
# potassium channel (hERG) = potassium channel (hERG) (Homo sapiens, UniProt Q12809); assay: Ricerca Lead Profiling Screen radioligand binding
# Intrinsic clearance = type: in vitro ADME; details: rat hepatic microsomes
# potassium channel (KATP) = assay: Ricerca Lead Profiling Screen radioligand binding
# calcium channel, N-type = calcium channel, N-type (Homo sapiens, UniProt Q00975); assay: Ricerca Lead Profiling Screen radioligand binding
# [2] = >300 assays performed within the MLPCN network; details: weakly active in each of four assays out of >300
# [3] = KCNQ2, common assay system (PubChem AID: 588426) vs reported values
# Chain of potassium channel (hERG) (Q12809 whole entry): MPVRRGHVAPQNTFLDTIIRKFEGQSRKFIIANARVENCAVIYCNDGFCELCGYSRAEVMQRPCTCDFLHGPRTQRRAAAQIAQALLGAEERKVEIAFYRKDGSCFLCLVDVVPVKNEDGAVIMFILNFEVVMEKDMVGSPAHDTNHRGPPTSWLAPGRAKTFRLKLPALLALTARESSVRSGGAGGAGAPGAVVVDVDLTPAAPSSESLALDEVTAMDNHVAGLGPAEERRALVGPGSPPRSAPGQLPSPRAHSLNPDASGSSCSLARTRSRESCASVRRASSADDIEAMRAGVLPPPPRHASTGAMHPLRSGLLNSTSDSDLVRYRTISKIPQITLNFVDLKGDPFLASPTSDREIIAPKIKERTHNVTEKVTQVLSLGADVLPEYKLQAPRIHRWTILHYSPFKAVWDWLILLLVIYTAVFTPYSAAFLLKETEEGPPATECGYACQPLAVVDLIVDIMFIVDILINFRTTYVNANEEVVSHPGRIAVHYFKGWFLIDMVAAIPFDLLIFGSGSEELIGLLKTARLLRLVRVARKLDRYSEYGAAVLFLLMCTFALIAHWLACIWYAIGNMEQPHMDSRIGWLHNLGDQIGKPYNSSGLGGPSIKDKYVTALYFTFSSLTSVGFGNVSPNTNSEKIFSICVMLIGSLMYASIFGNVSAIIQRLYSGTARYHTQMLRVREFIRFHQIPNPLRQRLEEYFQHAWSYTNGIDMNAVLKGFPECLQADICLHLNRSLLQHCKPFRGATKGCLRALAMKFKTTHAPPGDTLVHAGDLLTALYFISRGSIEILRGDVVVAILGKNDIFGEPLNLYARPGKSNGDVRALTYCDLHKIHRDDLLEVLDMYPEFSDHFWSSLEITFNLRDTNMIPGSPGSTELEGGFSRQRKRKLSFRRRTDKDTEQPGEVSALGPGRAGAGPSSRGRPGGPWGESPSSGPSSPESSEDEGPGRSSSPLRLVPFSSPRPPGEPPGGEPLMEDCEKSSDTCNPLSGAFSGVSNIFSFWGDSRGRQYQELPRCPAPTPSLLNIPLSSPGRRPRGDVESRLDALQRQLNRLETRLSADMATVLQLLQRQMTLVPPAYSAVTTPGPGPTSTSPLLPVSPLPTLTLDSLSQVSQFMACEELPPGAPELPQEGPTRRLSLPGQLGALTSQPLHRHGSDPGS
# Chain of calcium channel, N-type (Q00975 whole entry): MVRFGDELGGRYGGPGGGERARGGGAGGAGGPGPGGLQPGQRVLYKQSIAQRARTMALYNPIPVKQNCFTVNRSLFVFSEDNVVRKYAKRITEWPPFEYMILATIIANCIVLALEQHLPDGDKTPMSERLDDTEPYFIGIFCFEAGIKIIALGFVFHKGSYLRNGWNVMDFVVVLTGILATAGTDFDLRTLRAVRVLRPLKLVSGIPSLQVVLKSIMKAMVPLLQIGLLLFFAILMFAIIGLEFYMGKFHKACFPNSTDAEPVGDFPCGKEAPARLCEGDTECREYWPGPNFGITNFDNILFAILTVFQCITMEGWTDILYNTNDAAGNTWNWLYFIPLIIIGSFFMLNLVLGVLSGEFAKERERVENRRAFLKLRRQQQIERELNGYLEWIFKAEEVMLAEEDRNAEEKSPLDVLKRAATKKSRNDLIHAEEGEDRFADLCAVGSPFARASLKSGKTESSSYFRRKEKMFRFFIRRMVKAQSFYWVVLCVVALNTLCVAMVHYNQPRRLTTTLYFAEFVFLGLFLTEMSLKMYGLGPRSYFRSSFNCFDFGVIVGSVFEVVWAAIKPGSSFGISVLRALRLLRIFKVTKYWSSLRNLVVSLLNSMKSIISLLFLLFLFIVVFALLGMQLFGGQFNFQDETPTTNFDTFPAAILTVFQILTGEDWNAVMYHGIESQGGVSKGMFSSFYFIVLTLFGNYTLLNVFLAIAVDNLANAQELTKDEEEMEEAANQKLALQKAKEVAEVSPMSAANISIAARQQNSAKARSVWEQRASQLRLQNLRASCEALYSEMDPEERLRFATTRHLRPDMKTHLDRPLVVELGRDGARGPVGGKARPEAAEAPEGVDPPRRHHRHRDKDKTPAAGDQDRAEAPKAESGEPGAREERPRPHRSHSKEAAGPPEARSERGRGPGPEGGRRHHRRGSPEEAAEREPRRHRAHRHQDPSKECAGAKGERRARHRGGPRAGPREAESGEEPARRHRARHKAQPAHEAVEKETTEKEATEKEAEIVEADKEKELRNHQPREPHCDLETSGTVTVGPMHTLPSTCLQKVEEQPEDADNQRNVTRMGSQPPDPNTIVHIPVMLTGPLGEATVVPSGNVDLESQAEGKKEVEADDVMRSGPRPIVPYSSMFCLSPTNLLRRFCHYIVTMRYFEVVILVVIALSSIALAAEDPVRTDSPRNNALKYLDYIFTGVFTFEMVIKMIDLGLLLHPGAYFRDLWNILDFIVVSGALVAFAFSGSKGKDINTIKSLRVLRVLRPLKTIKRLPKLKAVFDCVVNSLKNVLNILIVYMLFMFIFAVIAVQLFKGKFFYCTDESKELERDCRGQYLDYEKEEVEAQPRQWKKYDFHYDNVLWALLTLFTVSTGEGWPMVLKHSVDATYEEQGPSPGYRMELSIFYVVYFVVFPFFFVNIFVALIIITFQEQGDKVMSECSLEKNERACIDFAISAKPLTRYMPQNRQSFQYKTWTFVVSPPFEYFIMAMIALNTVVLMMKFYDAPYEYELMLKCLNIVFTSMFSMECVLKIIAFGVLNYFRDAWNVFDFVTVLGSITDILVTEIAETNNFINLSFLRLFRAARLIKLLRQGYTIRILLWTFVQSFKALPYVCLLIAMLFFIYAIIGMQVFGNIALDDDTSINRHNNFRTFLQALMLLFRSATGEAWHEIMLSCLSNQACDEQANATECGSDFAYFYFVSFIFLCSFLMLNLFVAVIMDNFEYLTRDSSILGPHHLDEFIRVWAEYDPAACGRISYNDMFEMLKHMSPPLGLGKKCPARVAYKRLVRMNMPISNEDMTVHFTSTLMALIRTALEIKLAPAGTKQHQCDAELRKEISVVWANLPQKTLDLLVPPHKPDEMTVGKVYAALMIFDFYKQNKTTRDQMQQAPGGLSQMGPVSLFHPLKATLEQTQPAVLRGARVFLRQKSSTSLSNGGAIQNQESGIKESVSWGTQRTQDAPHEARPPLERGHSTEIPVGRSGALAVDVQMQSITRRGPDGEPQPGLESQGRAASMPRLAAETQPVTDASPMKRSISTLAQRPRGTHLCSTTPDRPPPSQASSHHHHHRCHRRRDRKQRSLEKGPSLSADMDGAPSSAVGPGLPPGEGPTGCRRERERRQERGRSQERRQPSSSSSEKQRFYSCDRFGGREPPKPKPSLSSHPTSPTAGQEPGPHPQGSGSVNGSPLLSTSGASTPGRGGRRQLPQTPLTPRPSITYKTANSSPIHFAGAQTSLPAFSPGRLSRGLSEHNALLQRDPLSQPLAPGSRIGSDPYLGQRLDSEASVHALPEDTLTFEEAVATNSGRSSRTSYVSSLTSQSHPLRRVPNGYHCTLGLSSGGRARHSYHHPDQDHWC
Structure (SMILES),KCNQ2 activity (in words) (KCNQ2 channels),inhibition at 30 µM (KCNQ2 channels),also measured
O=C(Nc1ccccc1N1CCCC1)C1(c2ccccc2)CC1 [compound 14],not tolerated,,
CCC(NC(=O)c1ccccc1N1CCCC1)c1ccccc1 (stereo not drawn) [compound 17],complete loss of activity,38%,
"O=C1N(c2ccccc2)c2ccccc2C1(Cc1ccncc1)Cc1ccncc1 [compound 2, Linopirdine, reference compound]",,,fold more potent compared to previous values (KCNQ2 channels; [3]): 8 – 10 fold
"c1ccc(C(NCc2cccnc2)(c2ccccc2)c2ccccc2)cc1 [compound 3, UCL2077, reference compound]",,,fold less potent compared to previous values (KCNQ2 channels; [3]): ~ 7 fold
CCC(C(=O)Nc1ccccc1N1CCCCC1)c1ccccc1 (stereo not drawn) [compound 48],loss of activity,32%,
CCC(C(=O)Nc1ccccc1N1CCCC1)c1ccccc1Cl (stereo not drawn) [compound 30],,,fold loss of potency (KCNQ2 channels): 20 fold
CCC(C(=O)N(C)c1ccccc1N1CCCC1)c1ccccc1 (stereo not drawn) [compound 18],complete loss of activity,,
O=C(Cc1cccc(Cl)c1)Nc1ccccc1N1CCCCC1 [compound 49],loss of activity,,
CCC(C(=O)Nc1ccccc1N(C)Cc1ccccc1)c1ccccc1 (stereo not drawn) [compound 64],,27.1%,
O=C(Cc1cccc(Cl)c1)Nc1cccc(N2CCCC2)c1 [compound 45],,,"fold loss of activity (KCNQ2 channels; KCNQ2 activator series, 3-pyrrolidine vs 2-pyrrolidine): ~ 5 fold"
CCC(C(=O)Nc1ccccc1OC)c1ccccc1 (stereo not drawn) [compound 63],,28.1%,
"CC[C@H](C(=O)Nc1ccccc1N1CCCC1)c1ccccc1 [(S)-5, (S)-2-Phenyl-N-(2-(pyrrolidin-1-yl)phenyl)butanamide]",,,"concentration at 1 h [1]: 672 nM; calcium channel L-type binding (in words) (calcium channel, L-type): not inhibited; potassium channel hERG binding (in words) (potassium channel (hERG)): not inhibited; Rat CLHEP (Intrinsic clearance): 67.3 mL/min/kg; potassium channel KATP binding (in words) (potassium channel (KATP)): not inhibited; calcium channel N-type binding (in words) (calcium channel, N-type): not inhibited"
CC(C)(C(=O)Nc1ccccc1N1CCCC1)c1ccccc1 [compound 15],not tolerated,,
"O=C1c2ccccc2C(Cc2ccncc2)(Cc2ccncc2)c2ccccc21 [compound 1, XE-991, reference compound]",,,fold more potent compared to previous values (KCNQ2 channels; [3]): 8 – 10 fold
CC(C)C(C(=O)Nc1ccccc1N1CCCC1)c1ccccc1 (stereo not drawn) [compound 9],not tolerated,25.4%,
CCC(C(=O)Nc1ccccc1N(C)C)c1ccccc1 (stereo not drawn) [compound 56],,59.8%,
CCC(C(=O)Nc1ccccc1N1CCCC1)c1ccccc1 (stereo not drawn) [compound 5],,,activity in four MLPCN assays not dependent on KCNQ2 [2]: > 15 µM
O=C(Nc1ccccc1N1CCCC1)C1CCOc2ccccc21 (stereo not drawn) [compound 16],not tolerated,,
CCC(C(=O)Nc1ccccc1N1CCCC1)c1ccc(OC)c(OC)c1 (stereo not drawn) [compound 19],,,fold loss of potency (KCNQ2 channels): 125 fold

# — paper PMC3530927 (Journal of medicinal chemistry, 2012)
